# Patent US20240217926A1, “1,6-NAPHTHALENEDITHIOL PRODUCT AND PROCESS FOR PRODUCING THE SAME” (SUGAI CHEMICAL INDUSTRY CO., LTD., priority 2022, published 2024)
# Legend:
# [1] = Dissolubility (maximum dissolved concentration in organic solvents, by HPLC); assay type: physicochemical; conditions: 25° C.; for Dissolubility DMF: N,N-dimethylformamide; for Dissolubility PGMEA: propylene glycol monomethyl ether acetate; for Dissolubility THF: tetrahydrofuran
# Protocol: In each of predetermined solvents described in the Table below, a sample was mixed at a temperature of 25° C., and the dissolubility of the sample was evaluated. In more detail, the sample was added to a predetermined amount of a solvent until the sample could not be dissolved, and the sample content of the liquid phase (the solvent phase) of the resulting mixture was analyzed using an HPLC (“SPD-20A” manufactured by SHIMADZU CORPORATION), and thus the concentration (the maximum dissolved concentration) of the sample in the liquid phase (the solvent phase) was determined as a solubility.
# [2] = Heat stability by differential scanning calorimetry (DSC); assay type: physicochemical; conditions: heat stability data by DSC
# Protocol: Specifically, 2,7-naphthalenedithiol (2,7-form) described in the Patent Document 1 has a melting point of 186 to 188° C., 2,6-naphthalenedithiol (2,6-form) has a melting point of 196 to 197° C., and 1,5-naphthalenedithiol (1,5-form) described in the Nonpatent Document 1 has a melting point of 120 to 121° C. Thus, these positional isomers of naphthalenedithiol each have a high melting point and are expected to show boiling point elevation due to hydrogen bonds of mercapto groups. […] Thus, it is technically difficult to adopt purification of these naphthalenedithiols by distillation at a relatively high temperature. For example, when 1,5-form, 2,6-form, and 2,7-form are tried to be distilled under vacuum, an outflow (or exit) line is to be maintained at a high temperature in order to prevent crystallization. However, such a high temperature of the outflow line causes not only easy re-evaporation of the naphthalenedithiols in the outflow line but also crystallization and clogging of the naphthalenedithiols in a subsequent line, thus making it impossible to operate the distillation.
SMILES,Dissolubility Methanol [1],temperature at which weight decreases by 5% or more [2],Dissolubility DMF [1],Dissolubility Ethyl acetate [1],Dissolubility PGMEA [1],Dissolubility THF [1],Dissolubility Toluene [1]
"Sc1ccc2c(S)cccc2c1 [Example 1, 1,6-naphthalenedithiol]",19.3 % by mass,–,–,–,–,–,–
"Sc1cccc2c(S)cccc12 [Comparative Example 5, 1,5-naphthalenedithiol]",1.08 % by mass,176 °C,34.4 % by mass,7.05 % by mass,7.44 % by mass,29.0 % by mass,7.26 % by mass
"Sc1ccc2ccc(S)cc2c1 [Comparative Example 7, 2,7-naphthalenedithiol]",0.16 % by mass,188 °C,7.75 % by mass,0.90 % by mass,1.05 % by mass,5.24 % by mass,0.76 % by mass
"Sc1ccc2cc(S)ccc2c1 [Comparative Example 6, 2,6-naphthalenedithiol]",0.11 % by mass,196 °C,3.54 % by mass,0.65 % by mass,0.73 % by mass,4.03 % by mass,0.64 % by mass
